Data as given in US11286268B1, “EIF4E-inhibiting compounds and methods” (EFFECTOR THERAPEUTICS, INC., priority 2019, dated 2022).
Where two headings read alike, the source gives them in different places.

Biological target: recombinant eIF4E (Homo sapiens (Human), UniProt P06730)
Assay: Fluorescence polarization competition assay for eIF4E binding potency
Experimental: Compounds were screened for eIF4E binding potency using a fluorescence polarization competition assay. All binding reactions were performed in fluorescence polarization buffer (FPB) containing 20 mM Tris pH 7.5, 100 mM NaCl, 1 mM DTT, and 0.02% Tween-20. Final binding reactions contained 75 nM recombinant eIF4E (Beryllium, custom order), 20 nM EDA-m^7GDP-ATTO-550 (Jena Bioscience, NU-827-550) and varying concentrations of the inhibitory compound of interest. Final DMSO concentration in each reaction was 1%.
eIF4E protein was pre-incubated with EDA-m^7GDP-ATTO-550 in FPB at 2× concentrations for 5 minutes prior to the addition of compounds. Compounds (100×) were prepared using 3-fold serial dilutions in 100% DMSO, and subsequently diluted 1:50 in FPB to produce 2× stocks. 50 μl of 2× eIF4E/EDA-m^7GDP-ATTO-550 were transferred to the wells of a 96-well half-area black flat bottom polystyrene plate. 50 μl of 2× test compound were added, and binding reactions were allowed to equilibrate for 30 minutes at room temperature while protected from light. The fluorescent polarization signal was detected using a Victor 2 multi-label counter (Perkin Elmer) and the concentration necessary to achieve inhibition of eIF4E/EDA-m^7GDP-ATTO-550 binding by 50% (IC50) was calculated using data from an 8-point compound dilution series.
In Table 4A, IC50 values of less than 0.05 μM are labelled as “+++”, from 1 to 0.05 μM are labelled as “++”, and greater than 1 μM are labelled as “+”. ND=not determined.

[1] = inhibition of eIF4E/EDA-m7GDP-ATTO-550 binding, calculated IC50 values, Table 4B, read-out: IC50
[2] = fluorescence polarization competition, 75 nM recombinant eIF4E, 20 nM EDA-m7GDP-ATTO-550, IC50 class, read-out: elF4E FP
[3] = inhibition of eIF4E/EDA-m7GDP-ATTO-550 binding by 50%, Table 4B calculated values, read-out: IC50

Chain of recombinant eIF4E (P06730 whole entry): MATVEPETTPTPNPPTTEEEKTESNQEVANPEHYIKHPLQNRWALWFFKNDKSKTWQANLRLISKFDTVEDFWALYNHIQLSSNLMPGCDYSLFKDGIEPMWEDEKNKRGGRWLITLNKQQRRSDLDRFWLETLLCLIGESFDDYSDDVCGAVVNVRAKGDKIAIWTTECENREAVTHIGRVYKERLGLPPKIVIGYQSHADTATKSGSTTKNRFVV

Compound Cc1nc2cnc(N3CCC4(CC3)CCN4CC(F)F)c(C#N)c2c(=O)n1CC#Cc1ccc(Cl)cc1-c1ccnc2c(C(=O)O)csc12 [compound 1490] has an IC50 [1] of 29.1 nM.

Compound Cc1nc2cnc(N3CCN(C(C)(C)CCC(F)(F)F)CC3)c(C#N)c2c(=O)n1CCOc1ccc(Cl)cc1-c1ccnc2c(C(=O)O)csc12 [compound 1400] has an IC50 [1] of 27.8 nM.

In the case of Cc1nc2c(C(F)F)ccc(C#N)c2c(=O)n1CCOc1ccc(Cl)cc1-c1cccc(C(=O)O)c1 [compound 37], the IC50 [2] is reported as < 50 nM and the IC50 [3] is reported as 39.6 nM.

CCc1cc(-c2cc(Cl)ccc2OCCn2c(C)nc3cnc(-c4ccccc4)c(C#N)c3c2=O)c2scc(C(=O)O)c2n1 [compound 1016] was tested, and the IC50 [2] was < 50 nM and the IC50 [3] was 1.11 nM.

With Cc1cc(-c2cc(Cl)ccc2OCCn2c(C)nc3cc(-c4cccnc4)c(Cl)c(C#N)c3c2=O)c2scc(C(=O)O)c2n1 [compound 1098] the IC50 [2] was < 50 nM and the IC50 [3] was 15.6 nM.

In the case of COc1cc(-c2cc(Cl)ccc2OCCn2cnc3cnc(C#N)cc3c2=O)cc(C(=O)O)n1 [compound 87], the IC50 [2] is reported as > 1000 nM and the IC50 [3] is reported as 1160 nM.

In the case of N#Cc1cncc2nc(C(F)F)n(CCOc3ccc(Cl)cc3-c3cccc(C(=O)O)c3)c(=O)c12 [compound 1983], the IC50 [1] is reported as 82.6 nM.

In the case of Cc1nc2cc(C(F)(F)F)cc(C#N)c2c(=O)n1CCOc1ccnnc1-c1ccnc2c(C(=O)O)csc12 [compound 453], the IC50 [2] is reported as > 1000 nM and the IC50 [3] is reported as 2320 nM.

With Cc1cc(-c2cc(Cl)ccc2OCCn2c(C)nc3cc(C(F)(F)F)c(-c4nc(C)ncc4F)c(C#N)c3c2=O)c2scc(C(=O)O)c2n1 [compound 964] the IC50 [2] was < 50 nM and the IC50 [3] was 3.32 nM.

For Cc1cc(-c2cc(Cl)ccc2OCCn2c(C)nc3cc(C(F)(F)F)c(C(=O)N(C)C)c(C#N)c3c2=O)c2scc(C(=O)O)c2n1 [compound 789], the IC50 [2] was < 50 nM and the IC50 [3] was 8.96 nM.

In the case of Cc1cc(-c2cc(Cl)ccc2OCCn2c(C)nc3cc(C(F)F)c(C)c(C#N)c3c2=O)c2scc(C(=O)O)c2n1 [compound 627], the IC50 [2] is reported as < 50 nM and the IC50 [3] is reported as 6.72 nM.

C#Cc1ccc(C#N)c2c(=O)n(CCOc3ccc(Cl)cc3-c3ccnc4c(C(=O)O)csc34)c(C)nc12 [compound 211] was tested, and the IC50 [2] was < 50 nM and the IC50 [3] was 35.4 nM.

In the case of Cc1nc2cc(C(F)(F)F)c(N3CCN(C)CC3)c(C#N)c2c(=O)n1CCOc1ccc(Cl)cc1-c1ccnc(C(=O)O)c1 [compound 1221], the IC50 [2] is reported as < 50 nM and the IC50 [1] is reported as 30 nM.

With Cc1nc2cc(C(F)(F)F)c(OCCN3CCNCC3)c(C#N)c2c(=O)n1CCOc1ccc(Cl)cc1-c1ccnc2ccsc12 [compound 853] the IC50 [2] was < 50 nM and the IC50 [3] was 31.9 nM.

With Cc1nc2cnc(N3CCN(CCCC(F)(F)F)CC3)c(C#N)c2c(=O)n1CCOc1ccc(Cl)cc1-c1ccnc2c(C(=O)O)csc12 [compound 844] the IC50 [2] was < 50 nM and the IC50 [3] was 23.3 nM.

For Cc1nc2c(N3CCN(CC(F)F)C4CC43)ncc(C#N)c2c(=O)n1CCOc1ccc(Cl)cc1-c1ccnc2c(C(=O)O)csc12 (stereo not shown) [compound 818], the IC50 [2] was < 50 nM and the IC50 [3] was 13.1 nM.

With Cc1cc(-c2cc(Cl)ccc2OCCn2c(C)nc3ccc(CCN(C)C)c(C#N)c3c2=O)c2scc(C(=O)NS(C)(=O)=O)c2n1 [compound 1138] the IC50 [2] was < 50 nM and the IC50 [3] was 23.7 nM.

In the case of Cc1nc2cnc(N(C)[C@H]3CC[C@H](CN(C)CC(C)(F)F)CC3)c(C#N)c2c(=O)n1CC#Cc1ccc(Cl)cc1-c1ccnc2c(C(=O)O)csc12 [compound 1583], the IC50 [1] is reported as 58.2 nM.

For Cc1nc2cnc(N3CCN(C)C4CC43)c(C#N)c2c(=O)n1C/C=C/c1ccc(Cl)cc1-c1ccnc2c(C(=O)O)csc12 (stereo not shown) [compound 1347], the IC50 [1] was 41.4 nM.

In the case of Cc1cc(-c2cc(Cl)ccc2OCCn2c(C)nc3cc(C(F)(F)F)c(-c4cc(F)cnc4C)c(C#N)c3c2=O)c2scc(C(=O)OCCN3CCCC3)c2n1 [compound 1081], the IC50 [2] is reported as > 1000 nM and the IC50 [3] is reported as 1040 nM.

Cc1nc2cnc(N(C)C3CCN(CC(F)(F)F)CC3)c(C#N)c2c(=O)n1CC#Cc1ccc(Cl)cc1-c1ccnc2c(C(=O)NS(C)(=O)=O)csc12 [compound 1501] was tested, and the IC50 [1] was 20.5 nM.

In the case of Cc1nc2ccc(CCN(C)C)c(C#N)c2c(=O)n1CCOc1ccc(Cl)cc1-c1ccnc2c(C(=O)O)csc12 [compound 507], the IC50 [2] is reported as < 50 nM and the IC50 [3] is reported as 49 nM.

For Cc1cc(-c2cc(Cl)ccc2OCCn2c(C)nc3ccc(OC(C)C)c(C#N)c3c2=O)c2scc(C(=O)O)c2n1 [compound 371], the IC50 [2] was < 50 nM and the IC50 [3] was 20 nM.

N#Cc1cccc2nc(C(F)F)n(CCOc3ccc(Cl)cc3-c3cccc4c(C(=O)O)csc34)c(=O)c12 [compound 2017] showed an IC50 [1] of 50.6 nM.

In the case of Cc1ncc(C#N)c2c(=O)n(CCOc3ccc(Cl)cc3-c3ccnc4c(C(=O)O)csc34)c(C)nc12 [compound 674], the IC50 [2] is reported as < 50 nM.

With Cc1nc2cc(C#N)cc(C#N)c2c(=O)n1C/C=C/c1ccc(Cl)cc1-c1ccnc2c(C(=O)O)csc12 [compound 286] the IC50 [2] was 50 to 1000 nM and the IC50 [3] was 183 nM.

In the case of Cc1cc(-c2cc(Cl)ccc2OCCn2c(C)nc3cc(C(F)(F)F)c(N4CCN(C)CC4)c(C#N)c3c2=O)c(C)c(C(=O)O)n1 [compound 1226], the IC50 [2] is reported as < 50 nM and the IC50 [1] is reported as 6.63 nM.

In the case of Cc1cc(-c2cc(Cl)ccc2OCCn2c(C)nc3c(ccc4cnncc43)c2=O)c2scc(C(=O)O)c2n1 [compound 671], the IC50 [2] is reported as 50 to 1000 nM and the IC50 [3] is reported as 77.7 nM.

Work on Cc1nc2cnc(C3CC3)c(C#N)c2c(=O)n1CCOc1ccc(Cl)cc1Cc1cc(C(=O)O)cs1 [compound 970] yielded an IC50 [2] of 50 to 1000 nM and an IC50 [3] of 166 nM.

Compound Cc1cc(-c2cc(Cl)ccc2OCCn2c(C)nc3cc(C(F)(F)F)c(-c4cc(F)ccn4)c(C#N)c3c2=O)c2scc(C(=O)O)c2n1 [compound 777] has an IC50 [2] of 50 to 1000 nM and an IC50 [3] of 53.3 nM.

With Cc1cc(-c2cc(Cl)ccc2OCCn2c(C)nc3cc(CN(C)C)c(OC(C)C)c(C#N)c3c2=O)c2scc(C(=O)O)c2n1 [compound 370] the IC50 [2] was < 50 nM and the IC50 [3] was 12.1 nM.

In the case of CC(C)(C)c1cc(C(=O)O)cc(-c2cc(Cl)ccc2OCCn2cnc3cnc(C#N)cc3c2=O)c1 [compound 105], the IC50 [2] is reported as > 1000 nM and the IC50 [3] is reported as > 3000 nM.

For N#Cc1cc2c(=O)n(CCOc3ccc(Cl)cc3-c3cc(C(=O)O)c(F)c(F)c3F)cnc2cn1 [compound 101], the IC50 [2] was > 1000 nM and the IC50 [3] was 43800 nM.

With C#Cc1cc(C#N)c2c(=O)n(CCOc3ccc(Cl)cc3-c3ccnc4c(C(=O)O)csc34)c(C)nc2c1 [compound 213] the IC50 [2] was < 50 nM and the IC50 [3] was 35.6 nM.

In the case of CCc1cc(-c2cc(Cl)ccc2OCCn2c(C)nc3cc(C(F)(F)F)c(N4CCN(C)CC4)nc3c2=O)c2scc(C(=O)O)c2n1 [compound 1084], the IC50 [2] is reported as < 50 nM and the IC50 [3] is reported as 15 nM.

Cc1sc2c(-c3cc(Cl)ccc3OCCn3c(C)nc4cc(C(F)(F)F)c(N5CCN(C)CC5)c(C#N)c4c3=O)ccnc2c1C [compound 1252] showed an IC50 [1] of 222 nM.

In the case of Cc1nc2cnc(N3CCN(C)C(C)(C)C3)c(C#N)c2c(=O)n1CCOc1ccc(Cl)cc1-c1ccnc2c(C(=O)O)csc12 [compound 815], the IC50 [2] is reported as < 50 nM and the IC50 [3] is reported as 3.31 nM.

In the case of Cc1cnc(C)c(-c2nc3c(=O)n(CCOc4ccc(Cl)cc4-c4cc(C)nc5c(C(=O)O)csc45)c(C)nc3cc2C(F)(F)F)n1 [compound 1022], the IC50 [2] is reported as < 50 nM and the IC50 [3] is reported as 42.4 nM.

With N#Cc1cccc2nc(C(F)F)n(CCOc3ccc(Cl)cc3-c3ccnc4c(C(=O)O)csc34)c(=O)c12 [compound 143] the IC50 [2] was < 50 nM and the IC50 [3] was 16.7 nM.

CCN(c1ncc2nc(C)n(CC#Cc3ccc(Cl)cc3-c3ccnc4c(C(=O)NS(C)(=O)=O)csc34)c(=O)c2c1C#N)C1CCN(CC(F)(F)C(F)F)CC1 [compound 1607] was tested, and the IC50 [1] was 14.6 nM.

In the case of CCc1ccc(-c2c(C(F)(F)F)cc3nc(C)n(CCOc4ccc(Cl)cc4-c4cc(C)nc5c(C(=O)O)csc45)c(=O)c3c2C#N)cn1 [compound 774], the IC50 [2] is reported as < 50 nM and the IC50 [3] is reported as 8.29 nM.

Compound Cc1nc2cnc(N(C)C3CCN(CC(C)(F)F)CC3)c(C#N)c2c(=O)n1CC#Cc1ccc(Cl)cc1-c1ccnc2c(C(=O)NS(=O)(=O)c3ccn(C)n3)csc12 [compound 1676] has an IC50 [1] of 4.33 nM.

Cc1nc2c(c(=O)n1CC#Cc1ccc(Cl)cc1-c1ccnc3c(C(=O)NS(=O)(=O)CC(C)(C)C#N)csc13)C(C#N)=C(N(C)C1CCN(CC(F)(F)F)CC1)NC2 [compound 1672] showed an IC50 [1] of 13.2 nM.

N#Cc1ccc(C#N)c2c(=O)n(CCOc3ccc(Cl)cc3-c3cccc(C(=O)O)c3)cnc12 [compound 1990] was tested, and the IC50 [1] was 58.1 nM.

For Cc1nc2cc(C(F)(F)F)cc(C#N)c2c(=O)n1CCOc1ccc(Cl)cc1-c1coc2c(C(=O)O)cccc12 [compound 300], the IC50 [2] was < 50 nM and the IC50 [3] was 24.3 nM.

With COc1cc(-c2cc(Cl)ccc2OCCn2c(C)nc3cc(C(F)(F)F)c(CN4CCN(C)CC4)c(C#N)c3c2=O)c2scc(C(=O)O)c2n1 [compound 638] the IC50 [2] was < 50 nM and the IC50 [3] was 4.46 nM.

For Cc1cc(-c2cc(Cl)ccc2OCCn2c(C)nc3cnc(N4CCC(O)C4)c(C#N)c3c2=O)c2scc(C(=O)O)c2n1 (stereo not shown) [compound 1056], the IC50 [2] was < 50 nM and the IC50 [3] was 16.1 nM.

In the case of Cc1nc2cnc(C3=CCN(C4CC4)CC3)c(C#N)c2c(=O)n1CC#Cc1ccc(Cl)cc1-c1ccnc2c(C(=O)O)csc12 [compound 1461], the IC50 [1] is reported as 13.8 nM.
